Measurements as given in publication PMC12040169 (PLOS Biology, 2025).

assay: in vitro; details: human, hela cells, % viability

Row | Compound | viability at 28.5 h, 10 µM
1 | O=C(c1cccs1)N1CCCN(Cc2cn3ccccc3n2)CC1 [CBK305304] | 102%
2 | CC(C)[C@@H](CO)n1c(=O)[nH]c2ncc(-c3cccc4cccnc34)nc21 [CBK064848] | 102%
3 | C=CCn1c(Cc2csc(NC(=O)c3cccc(Cl)c3)n2)n[nH]c1=S [CBK295314] | 98.3%
4 | CC1Cc2cc(CCC(=O)N3CCCc4c(cnn4C)C3)ccc2O1 (stereo not shown) [CBK282882] | 100%
5 | CCOC(=O)c1cnn2c(O)cc(CN3CCCCC3)nc12 [CBK305585] | 101%
6 | O=C(CCc1ccccc1)Nc1cccc2nsnc12 [CBK265680] | 85.3%
7 | C[C@]1(CO)C2CC[C@H]3OC(=O)C[C@H]3[C@]2(C)CC[C@H]1OC(=O)Nc1ccccc1 (stereo partly shown) [CBK289577] | 84.5%
8 | Cc1nc2c(OCC(=O)C(C)(C)C)cccn2c1N(C)C(=O)C1CCCCC1 [CBK147145] | 92.4%
9 | C=CCN1C(=O)CC2(C1=O)C(=O)N(CCCN1C(=O)c3ccccc3C1=O)c1ccc(Cl)cc12 (stereo not shown) [CBK075443] | 92.6%
10 | FC(F)(F)c1nc2ccccc2nc1SCCc1ccccc1 [CBK107204] | 90.3%
11 | c1cncc(-c2cc(NCCc3ccncc3)ncn2)c1 [CBK037716] | 114%
12 | CC(C)Nc1nc2ccccc2nc1Sc1ccncc1 [CBK115250] | 102%
13 | CN1C(=O)CC(Sc2ccccc2C(=O)O)C1=O (stereo not shown) [CBK287213] | 89.5%
14 | OCC(CO)(CO)NCc1ccc(-c2ccccc2)cc1 [CBK268742C] | 93.2%
15 | O=C(NC(=S)Nc1ccc(OCc2ccccc2)cc1)c1cccnc1 [CBK266224] | 97.8%
16 | O=C(c1ccccc1)N1CCC(c2nnc(-c3ccsc3)o2)CC1 [CBK283371] | 88.5%
17 | CNc1nc2c(ncn2C2CC(O)C(CO)O2)c(=O)[nH]1 (stereo not shown) [CBK201312] | 100%
18 | CCn1ncc(CN(CCN(C)C)Cc2cccs2)c1C [CBK282958] | 107%
19 | CCN(CC)C(=O)CSc1nnc[nH]1 [CBK026212] | 93.3%
20 | CCC(Oc1ccccc1)C(=O)Nc1ccccc1-c1ccccc1 (stereo not shown) [CBK266031] | 108%
21 | CN(C)c1nc(N(C)C)n(Cc2ccc(F)cc2)n1 [CBK018839] | 89.3%
22 | O=C(O)CCC(=O)Nc1ccc(NC(=O)C2CCCCC2)c(Cl)c1 [CBK268867] | 89.3%
23 | Cc1cccn2c(CN3CCC(O)CC3)c(C(=O)N3CCCCC3)nc12 [CBK307639] | 104%

Row | Compound | viability at 28.5 h, 10 µM
24 | CNC(=O)N1CC(=O)N(Cc2cccc(Cl)c2)C1=O [CBK001918] | 104%
25 | O=C(NCc1ccco1)NC(=O)c1ccc(Cl)cc1 [CBK269461] | 95.8%
26 | Cc1cccc(C)c1NC(=O)CSc1nnc(-c2cccnc2)n1Cc1ccccc1 [CBK265620] | 114%
27 | O=C(c1ccc(F)cc1)[C@H]1CCCN(C(=O)C2CC2)C1 [CBK284326] | 90.5%
28 | CCn1c(CNC(=O)C(C)Cn2cc(Cl)cn2)nc2ccccc21 (stereo not shown) [CBK281392] | 91.9%
29 | COc1ccc2[nH]cc(C3CCN(Cc4nc(C)no4)CC3)c2c1 [CBK305982] | 94.6%
30 | CCn1c(C)nnc1SCC(=O)Nc1cc(C(F)(F)F)ccc1Cl [CBK304382] | 91.7%
31 | COc1cc(F)cc(OC2CCNCC2)c1NC(=O)Cc1cn(C)c2ccccc12 [CBK050245T] | 105%
32 | Cc1c(S(=O)(=O)N2CCC(N)C2)sc2ccc(Cl)cc12 (stereo not shown) [CBK164970] | 89.3%
33 | COc1ccc(C2(C(F)(F)F)NC(=O)N3CCN=C3S2)cc1 (stereo not shown) [CBK019170] | 106%
34 | CN(CC(O)CO)C(=O)c1coc(COc2cccc(F)c2)n1 (stereo not shown) [CBK306854] | 88.5%
35 | C[C@@H](Cn1nnc2ccccc21)NC(=O)c1cccs1 [CBK284322] | 82.3%
36 | O=C(N/N=C\c1cccc2ccccc12)c1ccc(CO)nc1 [CBK261377] | 104%
37 | Cc1cc(C)n(-c2cc(C)c3ccccc3n2)n1 [CBK262358] | 81.9%
38 | Cc1cc(C)nc(Nc2noc(-c3ccccc3)n2)n1 [CBK269971] | 94.5%
39 | CCCCn1nc(C2CC2)nc1-c1cnn2cc(C)cnc12 [CBK306683] | 89.6%
40 | FC(F)(F)c1ccc(Sc2ccncc2)nc1 [CBK115217] | 108%
41 | O=S(=O)(Cc1ccc(Br)cc1)c1cc2c(N3CCNCC3)nccc2s1 [CBK045688C] | 87.4%
42 | CN(C)C1c2cccc3cccc(c23)C1NS(C)(=O)=O (stereo not shown) [CBK265851] | 110%
43 | COc1ccc2c(c1)OC1(CCN(CC(O)c3ccc(-c4ccccc4)cc3)CC1)CC2O (stereo not shown) [CBK286346] | 91.2%
44 | Cc1nc2c(c(=O)[nH]1)CN(Cc1c(C)oc3ccccc13)CC2 [CBK283984] | 94.8%
45 | O=C(O)C1CSC(c2ccc([N+](=O)[O-])cc2)N1 (stereo not shown) [CBK260909] | 103%
46 | Cc1ccsc1C(=O)Nc1ncn(CC(=O)N2CCCCCC2)n1 [CBK304192] | 92.5%

Row | Compound | viability at 28.5 h, 10 µM
47 | COCCN1C(=O)C2(CC(=O)N(CCCN3C(=O)CCC3=O)C2=O)c2ccccc21 (stereo not shown) [CBK075333] | 117%
48 | O=C(O)CCn1cc(Br)c([N+](=O)[O-])n1 [CBK286916] | 90%
49 | CCN1C(=O)/C(=C/c2cc3c(cc2Cl)OCO3)NC1=S [CBK265117] | 96.5%
50 | Cc1ccc(NC(=O)c2cc(NC(=O)C3CC=CCC3C(=O)O)ccc2N2CCOCC2)cc1Cl (stereo not shown) [CBK265323] | 105%
51 | Cc1cc(C)n(CCNC2CCN(c3ccccc3C)CC2)c(=O)n1 [CBK306848] | 89.1%
52 | O=C(NCC1(c2ccccc2)CCC1)C1CCCN(C(=O)c2ccoc2)C1 (stereo not shown) [CBK296670] | 85.6%
53 | O=C(CN1CCOCC1)N/N=C/c1cc2ccccc2nc1Cl [CBK262732] | 101%
54 | CC1CC(=O)Nc2ccccc2N1C(=O)Cn1c(=O)cnc2ccccc21 (stereo not shown) [CBK297116] | 95%
55 | O=C(Cn1nnc2ccccc21)c1ccc2c(c1)CCN2S(=O)(=O)c1ccccc1 [CBK286464] | 101%
56 | Nc1nc(SCc2cccc([N+](=O)[O-])c2)n[nH]1 [CBK268688] | 105%
57 | O=C(CN1C(=O)/C(=C/c2ccccc2)SC1=S)Nc1cccc(C(=O)O)c1 [CBK262171] | 86.9%
58 | CCOc1cccc(-c2cncc(NCc3cccs3)n2)c1 [CBK066034] | 104%
59 | COc1ccc(SCC(=O)Nc2nccs2)cc1 [CBK287751] | 83.4%
60 | N#Cc1ccc(NC(=O)CC2(CC(=O)O)CCCC2)cc1 [CBK286979] | 89.5%
61 | O=C(CC(C(=O)O)C1CCCO1)Nc1ccc(Cl)cc1Cl (stereo not shown) [CBK261509] | 86.2%
62 | COCCNc1nc2c(c(N3CCCC(CO)C3)n1)CCNCC2 (stereo not shown) [CBK307242] | 111%
63 | C[C@@H]1CN(C(=O)c2cc3ccccc3n2C)C[C@H](C)O1 [CBK200234] | 91.4%
64 | Cc1ccc(SCc2ccc(C(=O)NCCN3CCOCC3)cc2)cc1 [CBK269314] | 98.7%
65 | CCC(C(=O)N1CCc2nc(C)[nH]c(=O)c2C1)c1ccccc1 (stereo not shown) [CBK284618] | 91.6%
66 | Cc1cc(NC(=O)CN(C)CC(=O)Nc2ccc(Br)cc2C)no1 [CBK260700] | 92.9%
67 | NC(=O)CCCCn1c2c(c3cccc(C(=O)O)c31)CCCCC2 [CBK034088] | 104%
68 | Cc1ccc(-n2c(SCC(N)=O)nnc2-c2ccccc2O)c(C)c1 [CBK269673] | 89.6%
69 | O=C1NCCCNC(=O)C2(C/C=C/CCOc3ccccc31)CCN(C(=O)CN1CCCC1)CC2 [CBK292052] | 101%

Row | Compound | viability at 28.5 h, 10 µM
70 | Cc1cnc(C(=O)N[C@H]2C3CCCCC3[C@@H]2c2ccccc2)cn1 (stereo partly shown) [CBK285125] | 102%
71 | COC(=O)c1ccsc1NS(=O)(=O)c1cc(Br)ccc1OC [CBK039065] | 86.8%
72 | Nc1nc(=O)n([C@H]2C[C@@H](O)[C@@H](CO)O2)cc1I [CBK201226] | 90.4%
73 | CCOC(=O)N/N=C(/C)C(C)(C)C [CBK016460] | 105%
74 | FC(F)(F)c1ccnc(Sc2nccs2)n1 [CBK093771] | 91.9%
75 | COc1nc(NCCN2CCOCC2)nc(Nc2ccc(Cl)cc2)n1 [CBK262541] | 102%
76 | CC(C)c1ccc(NS(=O)(=O)c2csc3ccnc(N4CCNCC4)c23)cc1 [CBK042343C] | 95.8%
77 | CCn1cc(C2CN(S(=O)(=O)c3ccccc3OC(F)F)CCO2)cn1 (stereo not shown) [CBK304234] | 106%
78 | N#CCCN(C(=O)NCc1ccc(F)cc1)C1CCCCC1 [CBK156372] | 86.5%
79 | CCC(=O)NC1Cc2cccc3c2N(CCC3)C1=O (stereo not shown) [CBK010667] | 113%
80 | Cc1noc2nc(-c3ccco3)cc(C(=O)N(C)CCOc3ccccc3)c12 [CBK295623] | 90.1%
81 | O=C(Cc1ccc(Cl)c(Cl)c1)N1CCCC2(CCN(C(=O)c3ccoc3)C2)C1 (stereo not shown) [CBK131619] | 87.4%
82 | O=C(Cc1ccccc1[N+](=O)[O-])Nc1ccc(S(=O)(=O)N2CCCC2)cc1 [CBK265292] | 87.1%
83 | O=C(O)Cc1c[nH]c2ccccc12 [CBK228897G] | 102%
84 | O=C(NC1CCCCC1)O[C@@H]1CO[C@H]2[C@@H]1OC[C@@H]2NS(=O)(=O)Cc1ccccc1 [CBK289467] | 87.8%
85 | COc1ccc(N2CCN(CC(=O)N3c4ccccc4Sc4ccccc43)CC2)cc1 [CBK269398] | 89.1%
86 | CCCC1=NN(c2ccc([N+](=O)[O-])cc2)C(=O)/C1=C/NC1CC(C)(C)NC(C)(C)C1 [CBK262896] | 84.9%
87 | O=C1S/C(=C\c2ccc(O)c([N+](=O)[O-])c2)C(=O)N1Cc1ccc(Cl)cc1 [CBK102929] | 87.2%
88 | O=C(NCCO)C1CCCN(S(=O)(=O)c2ccc3ccccc3c2)C1 (stereo not shown) [CBK270090] | 83.7%
89 | CC(C(=O)Nc1cccc(F)c1)N1CCN(Cc2cccnc2)CC1 (stereo not shown) [CBK305408] | 109%
90 | Cc1[nH]c2cc(C(=O)NCCn3nccc3C)ccc2c1C [CBK283313] | 92.8%
91 | COc1ccc(-n2ncc3c(N4CCN(C)CC4)ncnc32)cc1 [CBK265848] | 89%
